Source: PMC9481570, “A small molecule antagonist of SMN disrupts the interaction between SMN and RNAP II” (Nature Communications, 2022)

How the values were obtained:
[1] = tested on: SMN occupancy at ACTB gene; test: SMN ChIP-qPCR along the ACTB gene; format: cell-based, human; details: 72 h; for SMN/RNAPII, ACTB position 332 / SMN/RNAPII, ACTB position 1671 / SMN/RNAPII, ACTB position 2911 / SMN/RNAPII, ACTB position 3752 / SMN/RNAPII, ACTB position 4657 / SMN/RNAPII, ACTB position 5590 / SMN/RNAPII, ACTB position -72: HEK293, 20 μM, ChIP-qPCR, DMSO = 1; for occupancy levels of SMN along the ACTB gene: HEK293 cells, 20 µM
Description: (§1) ChIP was performed using the EZ-ChIP™ A - Chromatin Immunoprecipitation Kit (Millipore, 17-371) according to the manufacturer’s instruction. Antibodies were used with a range of 1–2 μg, and IgG (Millipore, polyclonal antibody, 12-370) was used as a background control. After immunoprecipitation, genomic DNA was de-crosslinked in ChIP elution buffer containing 5 M NaCl at 65 °C overnight and purified with the Qiaex II kit (Qiagen, 20021), and eluted in water for PCR amplification. Immunoprecipitated and input DNAs were used as templates for qPCR. The qPCR primer sequences for ACTB gene are the same as described earlier[9] and shown in the Supplementary Table 2. For analysis of SMN chemical antagonists, HEK293 cells were treated with DMSO, compound 1 or compound 2 (a final concentration of 20 μM) for 72 h, before processing for ChIP.

[2] = target: T1, SMN-RNAP II (GFP-POLR2D) interaction (Homo sapiens, UniProt Q16637); test: Coimmunoprecipitation of SMN with GFP-POLR2D in HEK293 cells; format: cell-based; details: series of concentrations, 72 h
T1 construct: endogenous in cells; host or cells: HEK293
T1 sequence (Q16637 2-294 limits assumed): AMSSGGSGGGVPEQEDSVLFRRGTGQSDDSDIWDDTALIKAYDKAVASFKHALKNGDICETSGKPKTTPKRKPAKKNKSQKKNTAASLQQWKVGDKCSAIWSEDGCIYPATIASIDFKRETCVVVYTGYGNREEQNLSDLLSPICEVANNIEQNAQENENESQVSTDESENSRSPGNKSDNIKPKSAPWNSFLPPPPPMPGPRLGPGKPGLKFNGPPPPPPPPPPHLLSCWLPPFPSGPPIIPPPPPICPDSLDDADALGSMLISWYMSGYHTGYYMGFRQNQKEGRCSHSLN
Description: (§2) HEK293 cells (ATCC, CRL-1573) were grown in DMEM (SLRI media facility) plus 10% FBS (Sigma, F1051). For analysis of SMN chemical antagonists, HEK293 cells were treated with DMSO or a series of concentrations (0, 2, 6, 10, 20, 30, 40, and 80 μM) of compound 1, compound 2 or negative compound 15 for 72 h. CRISPR-mediated SMN1 gene knockout was performed according to our previous study. Briefly, 2 μg of CRISPR/Cas9 plasmid (pCMV-Cas9-GFP), which expresses scrambled guide RNA, or guide RNA that targets the SMN1 gene exon1 (gRNA target sequence: […]) or exon3 (gRNA target sequence: […]) was transfected into HEK293 cells. Cells were sorted by BD FACSAria flow cytometry at Donnelly Center, University of Toronto 24 h after transfection, and single GFP-positive cells were seeded into a 48-well plate. The expression levels of SMN in each clone were detected by immunofluorescence. The transfection of GFP-RNase H1 R-loop-binding domain (GFP-HB) for R-loop detection into HEK293 cells was performed with the FuGENE Transfection reagent (Roche, E269A).
The experiments were performed following procedure as previously described with minor modifications. […]

[3] = tested on: RNAP II occupancy at ACTB gene; test: RNAP II (POLR2A) ChIP-qPCR along the ACTB gene; format: cell-based, human; details: 72 h; for POLR2A ChIP-qPCR, ACTB position 332 / POLR2A ChIP-qPCR, ACTB position 1671 / POLR2A ChIP-qPCR, ACTB position 2911 / POLR2A ChIP-qPCR, ACTB position 3560 / POLR2A ChIP-qPCR, ACTB position 3752 / POLR2A ChIP-qPCR, ACTB position 4657 / POLR2A ChIP-qPCR, ACTB position 5590 / POLR2A ChIP-qPCR, ACTB position -72: HEK293, 20 μM; for occupancy levels of RNAP II at the promoter regions and 3′-end of the ACTB gene: HEK293 cells, 20 µM
Description: as §1

SMN-POLR2A interaction = target: T2, SMN-POLR2A interaction (Homo sapiens, UniProt Q16637); test: Coimmunoprecipitation of POLR2A with SMN in HEK293 cells; format: cell-based; details: 72 h; for inhibition of the interaction between SMN and POLR2A: 20 µM; for coimmunoprecipitation of POLR2A with SMN: series of concentrations
T2 construct: endogenous in cells; host or cells: HEK293
T2 sequence (Q16637 2-294 limits assumed): as above
Description: as §2
The experiments were performed following procedure as previously described with minor modifications. […] The supernatant cell lysates were sonicated with five on and off cycles of 0.3 s/0.7 s per mL and incubated for 30 min at 4 °C with 12.5–25 units/mL benzonase nuclease (Sigma, E1014) to remove RNA and DNA, followed by centrifugation at 18,400 × g for 30 min at 4 °C. The supernatant cell lysates were incubated with 2 μg of antibody overnight at 4 °C, followed by the addition of 20 μL of Dynabeads Protein G beads (Invitrogen, 10004D) for an additional incubation for 4 h. After washing with low-salt buffer (10 mM Tris-HCl, pH 7.9, 100 mM NaCl, and 0.1% Nonidet P-40) 3 times, 10 min/time, associated proteins were eluted into protein-loading buffer and separated by Tris 4–20% SDS-polyacrylamide (Mini-PROTEAN TGX Precast Protein Gel, BioRad, 4561096), and transferred to nitrocellulose or PVDF membranes (Immu-Blot PVDF, BioRad, 1620112 or 1620177). Transferred samples were immunoblotted with primary antibodies (POLR2A, Abcam, ab5408, monoclonal antibody, clone No. 4H8; SMN, Santa Cruz Biotechnology, sc-15320, polyclonal antibody; ACTB, Sigma, A5441, monoclonal antibody, clone No. AC-15; GFP, Invitrogen, G10362, rabbit monoclonal antibody; TUBB, Santa Cruz Biotechnology, sc-9104, polyclonal antibody) at a dilution of 1:2000 to 1:5000, followed by horseradish peroxidase-conjugated goat anti-mouse or mouse anti-rabbit secondary antibody (Jackson Immuno Research, 115-035-174 or 211-032-171) at a dilution of 1:10,000. Western blot detection was performed with enhanced chemiluminescence (Pierce ECL Western Blotting Substrate, Thermo Fisher, 32209). […]

CCCn1c2c(c(=N)c3c1CCC3)CCC2 [Compound 2, 4-propyl-2,3,4,5,6,7-hexahydrodicyclopenta[b,e]pyridin-8(1H)-imine]
SMN/RNAPII, ACTB position 332 [1]: 0.5015 | SMN/RNAPII, ACTB position 1671 [1]: 0.45 | SMN/RNAPII, ACTB position 2911 [1]: 0.3355 | SMN/RNAPII, ACTB position 3752 [1]: 0.2279 | SMN/RNAPII, ACTB position 4657 [1]: 0.35 | SMN/RNAPII, ACTB position 5590 [1]: 0.2022 | SMN/RNAPII, ACTB position -72 [1]: 0.3107 | occupancy levels of SMN along the ACTB gene [1]: significantly reduced | coimmunoprecipitation of SMN with GFP fusion protein of POLR2D [2]: inhibited | POLR2A ChIP-qPCR, ACTB position 332 [3]: 0.1333 | POLR2A ChIP-qPCR, ACTB position 1671 [3]: 0.1287 | POLR2A ChIP-qPCR, ACTB position 2911 [3]: 0.06481 | POLR2A ChIP-qPCR, ACTB position 3560 [3]: 0.09661 | POLR2A ChIP-qPCR, ACTB position 3752 [3]: 0.2124 | POLR2A ChIP-qPCR, ACTB position 4657 [3]: 0.1677 | POLR2A ChIP-qPCR, ACTB position 5590 [3]: 0.1104 | POLR2A ChIP-qPCR, ACTB position -72 [3]: 0.5589 | occupancy levels of RNAP II at the promoter regions and 3′-end of the ACTB gene [3]: significantly increased | inhibition of the interaction between SMN and POLR2A (SMN-POLR2A interaction): significant inhibition | coimmunoprecipitation of POLR2A with SMN (SMN-POLR2A interaction): disrupted

Cn1c2c(c(=N)c3c1CCC3)CCC2 [Compound 1, 4-methyl-2,3,4,5,6,7-hexahydrodicyclopenta[b,e]pyridin-8(1H)-imine]
SMN/RNAPII, ACTB position 332 [1]: 0.6623 | SMN/RNAPII, ACTB position 1671 [1]: 0.139 | SMN/RNAPII, ACTB position 2911 [1]: 0.1085 | SMN/RNAPII, ACTB position 3752 [1]: 0.1464 | SMN/RNAPII, ACTB position 4657 [1]: 0.1588 | SMN/RNAPII, ACTB position 5590 [1]: 0.03323 | SMN/RNAPII, ACTB position -72 [1]: 0.2631 | occupancy levels of SMN along the ACTB gene [1]: significantly reduced | coimmunoprecipitation of SMN with GFP fusion protein of POLR2D [2]: inhibited | POLR2A ChIP-qPCR, ACTB position 332 [3]: 0.1628 | POLR2A ChIP-qPCR, ACTB position 1671 [3]: 0.1331 | POLR2A ChIP-qPCR, ACTB position 2911 [3]: 0.08894 | POLR2A ChIP-qPCR, ACTB position 3560 [3]: 0.1246 | POLR2A ChIP-qPCR, ACTB position 3752 [3]: 0.2307 | POLR2A ChIP-qPCR, ACTB position 4657 [3]: 0.1056 | POLR2A ChIP-qPCR, ACTB position 5590 [3]: 0.1381 | POLR2A ChIP-qPCR, ACTB position -72 [3]: 0.4274 | occupancy levels of RNAP II at the promoter regions and 3′-end of the ACTB gene [3]: significantly increased | inhibition of the interaction between SMN and POLR2A (SMN-POLR2A interaction): significant inhibition | coimmunoprecipitation of POLR2A with SMN (SMN-POLR2A interaction): disrupted
